What all share (test): growth of human tumour cells (NCI), 48 h
Assay [1] concerns KM12 colon.
The subject of assay [2] is HS 578T breast.
The subject of assay [3] is OVCAR-3 ovarian.
The test system of assay [4] is NCI/ADR-RES ovarian.
Assay [5] concerns HCT-15 colon.
In assay [6] the test system is T-47D breast.
The test system of assay [7] is MCF7 breast.

Each structure is given as a SMILES string.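 Five concentrations, 48 hours, 96-well plates. GI50 marks 50% less growth. TGI marks complete inhibition of growth.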

As for `CC[n+]1ccc2c(c1)C(=O)c1nccc3c1c-2nc1ccccc13`, the GI50 in assay [1] is 2.41 µM; in assay [2], 0.955 µM; in assay [3] it was 0.783 µM; in assay [4], more than 27.7 µM; in assay [5], 2.86 µM; in assay [6], 2.2 µM. In addition, the GI50 in assay [7] is 0.587 µM. Also, the TGI is 15.2 µM in assay [1]; more than 10.1 µM in assay [2]; 2.92 µM in assay [3]; more than 33.3 µM in assay [4]; more than 33.3 µM in assay [5]; 9.19 µM in assay [6]. Further, the TGI in assay [7] was 4.84 µM.

As to `COc1ccc(CNC(=O)COc2ccc(/C=N/Nc3nc4ccccc4s3)cc2)cc1`, the GI50 in assay [1] was 2.51 µM; in assay [2], 2.24 µM; in assay [3] it was 2.1 µM; in assay [4], 3.12 µM; in assay [5] it was 3.44 µM; in assay [6], 1.69 µM. In addition, the GI50 in assay [7] is 3.52 µM. The TGI in assay [1] was more than 100 µM; in assay [2], 19.1 µM; in assay [3] it was 5.42 µM; in assay [4], 19.4 µM; in assay [5], more than 100 µM; in assay [6], 5.36 µM. Besides, the TGI in assay [7] is 27.5 µM.

Take `NNC(=O)c1cnn(-c2ccnc3c(C(F)(F)F)cccc23)c1N`: the GI50 in assay [1], in assay [2], in assay [3], in assay [4], in assay [5] and in assay [6] was more than 100 µM throughout. In assay [7], the GI50 was more than 100 µM. Also, the TGI in assay [1], in assay [2], in assay [3], in assay [4], in assay [5] and in assay [6] was more than 100 µM each time. Further, in assay [7], the TGI is more than 100 µM.

For the compound `COc1cccc(-c2nn(-c3ccccc3)cc2-c2ccnc(NCCCNS(=O)(=O)c3cccc(F)c3)c2)c1`, the GI50 was 3.38 µM in assay [1]; 6.52 µM in assay [2]; 4.88 µM in assay [3]; 3.05 µM in assay [4]; 2.89 µM in assay [5]; 1.54 µM in assay [6]. Moreover, in assay [7], the GI50 was 3.21 µM. Besides, the TGI in assay [1] was more than 100 µM; in assay [2], more than 100 µM; in assay [3], more than 100 µM; in assay [4], more than 100 µM; in assay [5] it was more than 100 µM; in assay [6], 5.27 µM. For the same compound, the TGI in assay [7] is more than 100 µM.

`COc1ccccc1NC(=O)c1ccc(/C=C/C(=O)c2nccn2C)cc1`: the GI50 in assay [1] is 0.44 µM; in assay [2], 1.1 µM; in assay [3], 0.459 µM; in assay [4], 0.806 µM; in assay [5] it was 0.363 µM; in assay [6], 0.711 µM. Also, in assay [7], the GI50 was 0.404 µM. Besides, the TGI amounted to 0.872 µM in assay [1]; 9.8 µM in assay [2]; 0.988 µM in assay [3]; 9.77 µM in assay [4]; 0.843 µM in assay [5]; 2.58 µM in assay [6]. This compound also returned a TGI in assay [7] of 0.977 µM.

Consider `CC1=C(CCCOC(=O)NCCCl)C2=C(C)C3(CC3)[C@@](C)(O)C(=O)C2=C1`, for which the GI50 was 10.5 µM in assay [1]; 8.31 µM in assay [2]; 2.95 µM in assay [3]; 2.95 µM in assay [4]; 2.84 µM in assay [5]; 3.36 µM in assay [6]. For the same compound, the GI50 in assay [7] is 2.24 µM. Besides, the TGI is 88.2 µM in assay [1]; 87.4 µM in assay [2]; 9.9 µM in assay [3]; more than 100 µM in assay [4]; more than 100 µM in assay [5]; more than 100 µM in assay [6]. The same compound returned a TGI in assay [7] of more than 100 µM.

`CCCCCCCCCCCCOC1C(CNCC2OC3OC(C)(C)OC3C2NC(=O)Nc2ccc(C(=O)OCC)cc2)OC2OC(C)(C)OC21` (stereo not given): the GI50 in assay [1] is 1.96 µM; in assay [2] it was 1.67 µM; in assay [3], 3.41 µM; in assay [4], 2.19 µM; in assay [5], 2.46 µM; in assay [6], 2.68 µM. Besides, the GI50 in assay [7] was 1.35 µM. The TGI in assay [1] stood at 3.69 µM; in assay [2] it was 3.76 µM; in assay [3] it was 11.5 µM; in assay [4], 4.35 µM; in assay [5] it was 6.14 µM; in assay [6], 7.1 µM. In assay [7], this compound yielded a TGI of 2.92 µM.

In the case of `CN1CCN(Cc2ccc(NC(=O)c3cncc(C#Cc4cnc(N)c5ccccc45)c3)cc2C(F)(F)F)CC1`, the GI50 in assay [1] was 0.0148 µM; in assay [2], 0.371 µM; in assay [3], 0.41 µM; in assay [4], 0.556 µM; in assay [5] it was 0.124 µM; in assay [6], 1.01 µM. Further, in assay [7], the GI50 is 0.371 µM. For the same compound, the TGI in assay [1] worked out at 0.43 µM; in assay [2], 1.18 µM; in assay [3] it was 0.967 µM; in assay [4], 1.21 µM; in assay [5], 0.534 µM; in assay [6], 4.11 µM. In assay [7], this compound came in with a TGI of 0.892 µM.

In the case of `CN=C1NC(=O)/C(=C/c2ccc3ncccc3c2)S1`, the GI50 is 19.9 µM in assay [1]; 6.24 µM in assay [2]; 9.11 µM in assay [3]; 13.9 µM in assay [4]; 6.09 µM in assay [5]; 5.24 µM in assay [6]. Besides, the GI50 in assay [7] was 6.21 µM. Further, the TGI in assay [1] is more than 25 µM; in assay [2] it was more than 21 µM; in assay [3] it was more than 25 µM; in assay [4], more than 25 µM; in assay [5], more than 25 µM; in assay [6] it was 24.4 µM. In addition, the TGI in assay [7] is more than 25 µM.

With `O=C(Cc1ccc(/C=C/C(=O)c2ncc[nH]2)cc1)Nc1ccc(Cl)cc1`, the GI50 in assay [1] is 1.3 µM; in assay [2] it was 18.8 µM; in assay [3], 1.14 µM; in assay [4], 5.02 µM; in assay [5], 0.879 µM; in assay [6], 3.24 µM. Further, the GI50 in assay [7] is 0.741 µM. The TGI was 5.23 µM in assay [1]; more than 25 µM in assay [2]; 4.29 µM in assay [3]; more than 25 µM in assay [4]; 5.99 µM in assay [5]; 16.2 µM in assay [6]. In assay [7], the TGI worked out at 4.73 µM.

Turning to `NS(=O)(=O)c1ccc(-n2nc(-c3ccc(Br)cc3)ccc2=O)cc1`, the GI50 in assay [1], in assay [2], in assay [3], in assay [4], in assay [5] and in assay [6] was more than 10 µM in each case. The GI50 in assay [7] is more than 10 µM. The TGI in assay [1], in assay [2], in assay [3], in assay [4], in assay [5] and in assay [6] was more than 10 µM each time. The compound also returned a TGI in assay [7] of more than 10 µM.

On to `CCOC(=O)c1cc(-c2ccc([N+](=O)[O-])cc2)n(-c2ccc(C(=O)O)c(O)c2)c1C`, for which the GI50 in assay [1] was 3.55 µM; in assay [2] it was 3.64 µM; in assay [3], 2.86 µM; in assay [4], 3.8 µM; in assay [5], 3.02 µM; in assay [6], 2.81 µM. Moreover, the GI50 in assay [7] is 3.58 µM. The TGI in assay [1] came to 11.7 µM; in assay [2], 17 µM; in assay [3] it was 9.53 µM; in assay [4], 38.6 µM; in assay [5] it was 12.2 µM; in assay [6], 11.4 µM. In addition, in assay [7], the TGI turned out to be 13.7 µM.

Consider `OC(c1cccc(C(F)(F)F)c1)c1cnccc1NC1CCCCCC1` (stereo not given), for which the GI50 in assay [1] is 1.93 µM; in assay [2], 2.04 µM; in assay [3], 2.35 µM; in assay [4], 1.85 µM; in assay [5], 1.81 µM; in assay [6], 1.79 µM. Besides, in assay [7], the GI50 was 1.66 µM. Moreover, the TGI in assay [1] came to 3.75 µM; in assay [2], 5.57 µM; in assay [3], 6.23 µM; in assay [4] it was 4.18 µM; in assay [5], 3.54 µM; in assay [6], 4.82 µM. In assay [7], the TGI came out at 3.51 µM.

In the case of `CN(C)c1ccc2c(c1)oc(=O)c1ccccc12`, the TGI in assay [2] worked out at 97.2 µM; in assay [3], 16.4 µM; in assay [4] it was 44.9 µM; in assay [5], 27 µM; in assay [6], 28.4 µM; in assay [7] it was 17.1 µM.

`CN(C)S(=O)(=O)Nc1ccccn1`: the TGI in assay [1], in assay [2], in assay [3], in assay [4], in assay [5] and in assay [7] was more than 100 µM each time.

Regarding `CCOC(=O)C(=O)N1C(C)=C(C(=O)OCC)CC(C(=O)OCC)=C1C`, the TGI in assay [1], in assay [2], in assay [3], in assay [5], in assay [6] and in assay [7] was more than 100 µM throughout.

For `CC(=O)/C(=C/n1c(=S)sc2ccccc21)C(=O)Nc1ccccc1C`, the TGI in assay [1], in assay [3], in assay [4], in assay [5], in assay [6] and in assay [7] was more than 100 µM in each case.

For `COC(=O)[C@@H](C)C[C@H](Cc1ccccc1)NC(=O)c1nc([C@@H](C[C@H](C(C)C)N(C)C(=O)[C@@H](NC(=O)[C@H]2CCCN2C)C(C)C)OC(C)=O)sc1C`, the GI50 in assay [1] is less than 0.0025 µM; in assay [2], less than 0.0025 µM; in assay [3], less than 0.0025 µM; in assay [4] it was 0.235 µM; in assay [5], 0.0119 µM; in assay [7], less than 0.0025 µM. The TGI in assay [1] was more than 25 µM; in assay [2] it was 15.8 µM; in assay [3], more than 25 µM; in assay [4], more than 25 µM; in assay [5], more than 25 µM; in assay [7], more than 25 µM.

For the compound `CC(=O)CC(=O)c1cc2c(=O)oc(C)cc2oc1=O`, the TGI in assay [1], in assay [3], in assay [4], in assay [5] and in assay [7] was more than 37.5 µM each time.

As to `O=C(O)Cc1c[nH]c2ccc(F)cc12`, the TGI in assay [1], in assay [3], in assay [4], in assay [5], in assay [6] and in assay [7] was more than 100 µM in each case.

For the compound `CCOC(=O)c1c(N)n(-c2ccccc2)c(=S)n(-c2ccccc2)c1=O`, the TGI in assay [1], in assay [2], in assay [3], in assay [5], in assay [6] and in assay [7] was more than 100 µM throughout.

On to `COc1ccc(NC2Oc3cc4c(cc3C(c3cc(OC)c(OC)c(OC)c3)C2C)OCO4)cc1` (stereo not given), for which the TGI is more than 31.6 µM in assay [1], more than 100 µM in assay [2], more than 100 µM in assay [3] and more than 41.3 µM in assay [7].

`O=C(/C=C(\[O-])c1ccccc1)CCCCCCC(=O)/C=C(\[O-])c1ccccc1.O=C(/C=C(\[O-])c1ccccc1)CCCCCCC(=O)/C=C(\[O-])c1ccccc1.O=C(/C=C(\[O-])c1ccccc1)CCCCCCC(=O)/C=C(\[O-])c1ccccc1.[La+3].[La+3]`: in assay [5], the GI50 is more than 50 µM and the TGI is more than 50 µM.

With `COC(=O)c1c2c(c(C)[n+]([O-])c1C)C(=O)C=CC2=O`, the GI50 in assay [1] is 1.99 µM; in assay [2] it was 2.84 µM; in assay [3] it was 0.314 µM; in assay [4] it was 2.33 µM; in assay [5], 1.43 µM; in assay [6] it was 1.97 µM. Moreover, the TGI in assay [1] stood at 4.77 µM; in assay [2], 8.64 µM; in assay [3], 1.05 µM; in assay [4], 7.78 µM; in assay [5] it was 3.31 µM; in assay [6] it was 7.26 µM.

As for `S=C1NCCN1C1=Nc2ccccc2CO1`, the GI50 in assay [1] was more than 100 µM; in assay [3], more than 100 µM; in assay [4], more than 100 µM; in assay [5], more than 100 µM; in assay [6], 73.5 µM; in assay [7], more than 100 µM. In addition, the TGI in assay [1], in assay [3], in assay [4], in assay [5], in assay [6] and in assay [7] was more than 100 µM throughout.

(Values after PubChem BioAssay (NCI).)
